Measurements taken from the Kinase Knowledgebase extract (Sharma et al. 2016).
pIC50: −log10 of the molar value.

What follows are molecules tested against MAPK14 (human) (UniProt Q16539) (assay: Assessment of MAPK14 Kinase Activity).
MAPK14 (human), sequence (Q16539 whole entry, looked up): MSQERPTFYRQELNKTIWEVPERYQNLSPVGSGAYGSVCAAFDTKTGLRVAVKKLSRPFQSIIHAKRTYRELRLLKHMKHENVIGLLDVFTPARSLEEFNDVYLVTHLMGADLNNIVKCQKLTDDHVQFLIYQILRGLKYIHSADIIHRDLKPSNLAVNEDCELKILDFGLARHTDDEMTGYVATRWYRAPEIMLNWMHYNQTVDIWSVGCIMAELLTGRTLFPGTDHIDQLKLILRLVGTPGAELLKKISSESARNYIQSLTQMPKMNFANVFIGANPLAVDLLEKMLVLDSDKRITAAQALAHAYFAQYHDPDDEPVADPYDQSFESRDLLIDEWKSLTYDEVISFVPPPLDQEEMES

Row | Compound | pIC50
1 | CC(C)(C)c1cc(C(=O)N2CCNC(=O)C2(C)C)c(NC(=O)Nc2cccc(-c3ccc(OCCCN4CCOCC4)nc3)c2)s1 | > 7.00
2 | Cc1ccc(NC(=O)Nc2sc(C(C)(C)C)cc2C(=O)N2CCN(C)C(=O)C2(C)C)cc1N1C(=O)CN(C)C1=O | > 7.00
3 | Cc1ccc(NC(=O)Nc2sc(C(C)(C)C)cc2C(=O)N2CCNC(=O)C2(C)C)cc1-c1ccc(N2CCN(C)CC2)cn1 | > 7.00
4 | Cc1nnc(-c2ccc(-c3cc(NC(=O)Nc4cc(C(C)(C)C)sc4C(=O)N4CCN(C)C(=O)C4(C)C)ccc3C)cn2)o1 | > 7.00
5 | Cc1ccc(NC(=O)Nc2cn(C(C)(C)C)nc2C(=O)N2CCNC(=O)C2(C)C)cc1-c1ccc(N2CCOCC2)nc1 | > 7.00
6 | CCc1ccc(-c2cc(NC(=O)Nc3cn(C(C)(C)C)nc3C(=O)N3CCNC(=O)C3(C)C)ccc2C)cn1 | > 7.00
